MIC and inhibition data for 20 compounds are collected here from US12595251B2, “Amidines and amidine analogs for the treatment of bacterial infections and potentiation antibiotics” (GEORGIA STATE UNIVERSITY RESEARCH FOUNDATION, INC., priority 2018, dated 2026).

The structures appear in SMILES notation.

One assay deals with B. subtilis. In words: MIC of compounds against B. subtilis (OD600, 48 h). Conditions: Bacillus subtilis; for MIC: MIC = 90% growth inhibition, compound alone; for inhibition at 25 µM: read-out: Growth inhibition of B. subtilis at 25 μM, compound alone at 25 μM; for inhibition at 12.5 µM: compound alone at 12.5 μM, NA=no activity, read-out: Growth inhibition of B. subtilis at 12.5 μM; for inhibition at 2 µM: read-out: Growth inhibition of B. subtilis at 2 μM, compound alone at 2 μM; for inhibition at 12 µM: compound alone at 12 μM, read-out: Growth inhibition of B. subtilis at 12 μM; for inhibition at 6 µM: read-out: Growth inhibition of B. subtilis at 6 μM, compound alone at 6 μM, NA=no activity. In kind it is cell-based. As to the method: Bacteria were then cultured with varying concentration of the compounds shown below for 48 hours, and then bacterial density was measured based on OD600. The procedure to determine the MIC for each compound against B. subtilis was the same except that the bacteria was cultured in nutrient broth. The MIC of each compound against B. subtilis is shown in Table 2 (NA=no activity, --=not tested).

A further assay concerns E. coli. In words: MIC of compounds against E. coli (OD600, 48 h). The class given is cell-based. Conditions: Escherichia coli; for inhibition at 25 µM: read-out: Growth inhibition of E. coli at 25 μM, compound alone at 25 μM, NA=no activity; for inhibition at 12 µM: compound alone at 12 μM, read-out: Growth inhibition of E. coli at 12 μM; for inhibition at 12 µM / MIC: NA=no activity; for inhibition at 50 µM: read-out: Growth inhibition of E. coli at 50 μM, compound alone at 50 μM, NA=no activity; for MIC: MIC = 90% growth inhibition, compound alone.

`Cc1cc(COc2ccc(C3=CCCCN3)cc2)cc(COc2ccc(C3=NCCCN3)cc2)c1`: in the assay on B. subtilis, the MIC was found to be 50 µM and the inhibition at 25 µM came out at 50%.
On to `N=C(N)c1ccc2nc(-c3ccc(OCC(F)(F)C(F)(F)COc4ccc(-c5nc6ccc(C(=N)N)cc6[nH]5)cc4)cc3)[nH]c2c1` [drawing 753], for which the inhibition at 25 µM in the assay with E. coli came to 50%. In the assay on B. subtilis, the inhibition at 12.5 µM amounted to 10% and the inhibition at 25 µM worked out at 20%.
On to `Cn1c(CCCCc2nc3ccc(C(=N)N)cc3n2C)nc2ccc(C(=N)N)cc21` [drawing 754], for which the inhibition at 25 µM with B. subtilis is 20%.
`N=C(N)c1ccc(Oc2ccc(C(=N)N)cc2)cc1` [drawing 755]: in the assay with B. subtilis, the inhibition at 12.5 µM was determined as 60% and the inhibition at 25 µM is 70%.
Turning to `N=C(N)c1ccc(OCc2ccc(-c3ccc(C(=N)N)cc3)cc2)cc1` [drawing 756], the inhibition at 25 µM in the assay on E. coli was 50%. Moreover, in the assay on B. subtilis, the MIC turned out to be 12.5 µM and the inhibition at 2 µM was 30%.
Turning to `N=C(N)c1ccc(OCc2cccc(COc3ccc(C(=N)N)cc3F)c2F)c(F)c1` [drawing 757], in the assay on E. coli, the inhibition at 12 µM was determined as 40%, the inhibition at 25 µM was found to be 70% and the inhibition at 50 µM was determined as 90%. Also, in the assay with B. subtilis, the MIC was 12.5 µM and the inhibition at 2 µM was 10%.
In the case of `N=C(N)c1ccc(OCc2cccc(COc3ccc(C(=N)N)cc3)c2F)cc1` [drawing 758], the inhibition at 12 µM was determined as 80% in the assay on E. coli and 60% with B. subtilis. The inhibition at 6 µM in the assay on E. coli (read-out: Growth inhibition of E. coli at 6 μM, compound alone at 6 μM) was 60%; in the assay with B. subtilis, 50%.
As to `Cn1c(CCc2nc3cc(C(=N)N)ccc3n2C)nc2cc(C(=N)N)ccc21` [drawing 759], the inhibition at 50 µM in the assay on E. coli amounted to 10%. In the assay with B. subtilis, the inhibition at 12.5 µM was 20% and the inhibition at 25 µM came out at 70%.
On to `Cc1cc(COc2ccc(C(=N)N)cc2)cc(COc2ccc(C(=N)N)cc2)c1` [drawing 761], for which, in the assay with E. coli, the inhibition at 12 µM is 15% and the inhibition at 25 µM amounted to 25%. Further, in the assay with B. subtilis, the inhibition at 12 µM is 20% and the inhibition at 25 µM worked out at 50%.
Take `c1cc(COc2ccc(C3=NCCN3)cc2)cc(COc2ccc(C3=NCCN3)cc2)c1` [drawing 762]: in the assay with E. coli, the inhibition at 12 µM was found to be 25% and the inhibition at 25 µM worked out at 50%.
For the compound `Fc1c(COc2ccc(C3=NCCN3)cc2)cccc1COc1ccc(C2=NCCN2)cc1` [drawing 763], the inhibition at 25 µM in the assay with E. coli is 20%.
Turning to `N=C(N)c1ccc(OCc2ccc(COc3ccc(C(=N)N)cc3)cc2)cc1` [drawing 766], in the assay with E. coli, the inhibition at 12 µM amounted to 10% and the inhibition at 25 µM came out at 20%. Further, in the assay with B. subtilis, the inhibition at 12 µM was found to be 70% and the inhibition at 6 µM was determined as 60%.
With `N=C(N)c1ccc(OCCCCCCCCOc2ccc(C(=N)N)cc2)cc1` [drawing 774], the MIC in the assay with E. coli is 25 µM.
For `N=C(N)c1ccc(OCOc2ccc(C(=N)N)cc2)cc1` [drawing 777], in the assay with B. subtilis, the inhibition at 12.5 µM amounted to 80% and the inhibition at 6 µM is 10%.
With `CCCNC(=N)c1ccc(COc2cc(C)cc(OCc3ccc(C(=N)NCCC)cc3)c2)cc1` [drawing 786], in the assay with B. subtilis, the MIC was found to be 50 µM, the inhibition at 12.5 µM came to 30% and the inhibition at 25 µM was found to be 50%.
Consider `Cc1cc(CSc2ccc(C3=NCCN3)cc2)cc(CSc2ccc(C3=NCCN3)cc2)c1` [drawing 792], for which the inhibition at 12.5 µM in the assay on E. coli (compound alone at 12.5 μM, read-out: Growth inhibition of E. coli at 12.5 μM) came to 10%.
Consider `Cc1ccc(COc2ccc(C(=N)N)cc2)cc1COc1ccc(C(=N)N)cc1` [drawing 793], for which, in the assay with B. subtilis, the inhibition at 12 µM was determined as 60% and the inhibition at 6 µM was 40%.
Turning to `Cc1cc(COc2ccc(C(=N)N)cc2F)cc(COc2ccc(C(=N)N)cc2F)c1` [drawing 794], the inhibition at 25 µM with E. coli worked out at 30%.
In the case of `CO/N=C(\N)c1ccc(OCc2cc(C)cc(COc3ccc(/C(N)=N\OC)cc3)c2)cc1` [drawing 795], in the assay with E. coli, the MIC came to 100 µM.
As for `CCCCc1cc(OCc2ccc(C(=N)N)cc2)cc(OCc2ccc(C(=N)N)cc2)c1` [drawing 796], the inhibition at 10 µM in the assay with E. coli (read-out: Growth inhibition of E. coli at 10 μM, compound alone at 10 μM) is 20%.
